Results: patent US20260207717A1, “METHODS FOR TREATING INFANTILE-ONSET POMPE DISEASE IN PEDIATRIC PATIENTS” (Amicus Therapeutics, Inc., priority 2022, published 2026)

Assays:
CIMPR = CIMPR (Homo sapiens, UniProt P11717); experiment: CIMPR affinity chromatography (bound vs unbound rhGAA by GAA activity); format: binding
Excerpt: Multiple batches of the rhGAA according to the disclosure were produced in shake flasks and in perfusion bioreactors using CHO cell line GA-ATB200, the product of which is referred to as “ATB200.” Weak anion exchange (“WAX”) liquid chromatography was used to fractionate ATB200 rhGAA according to terminal phosphate and sialic acid. Elution profiles were generated by eluting the ERT with increasing amount of salt. The profiles were monitored by UV (A280 nm).
To evaluate the ability of the conventional rhGAAs in MYOZYME® and LUMIZYME® to interact with the CIMPR, the two conventional rhGAA preparations were injected onto a CIMPR affinity column (which binds rhGAA having M6P groups) and the flow through collected. The bound material was eluted with a free M6 gradient. Fractions were collected in 96-well plate and GAA activity assayed by 4MU-α-glucosidase substrate. The relative amounts of unbound (flow through) and bound (M6P eluted) rhGAA were determined based on GAA activity and reported as the fraction of total enzyme. […] Indeed, only 27% of the rhGAA in MYOZYME® and 22% of the rhGAA in LUMIZYME® contained M6P that can be productive to target it to the CIMPR on muscle cells.

[1] = tested on: pediatric patient with infantile Pompe disease; experiment: Example 16: pediatric IOPD patient switched from Myozyme to ATB200/AT2221; format: in vivo, human
Excerpt: A patient with severe infantile Pompe disease presented. The patient underwent a comprehensive physical examination, measurement of GAA enzyme activity, genetic testing of the GAA gene and muscle biopsy to establish the diagnosis.
The patient received the high-dose enzyme replacement therapy with Myozyme after diagnosis. The patient responded very poorly to therapy. Due to rapidly progressing Pompe disease and inadequate response to therapy, the patient's survival was at risk. For the patient, the opportunity arose to receive the new ATB200/AT2221 ERT via a compassionate use/Expanded Access Program (EAP).
The index patient has regular measurement of the urinary Glc4-levels since the change of the ERT to ATB200. The Glc4-levels were determined by an established method from the Duke University. The analysis of Glc4 is standardized as a butyl-4-aminobenzoate derivative using [^13C6] Glc4 as the internal standard (IS). The measurement is performed as ultra-performance liquid chromatography-tandem mass spectrometry (UPLC-MS/MS). The Glc4-values are then normalized to creatinine.
The patient presented with IOPD at 6 months and was started on the standard dose of Myozyme (20 mg/kg/bi-weekly). Due to the inadequate response to therapy, the dose was doubled just one month after the start of therapy in form of a weekly administration of Myozyme. […] But the cardiological situation deteriorated progressively.
Therefore, just three months after initiation of therapy, the dose was again doubled to 40 mg/kg/weekly, so the patient received a total of four times the standard dose. With the intensification of ERT and cardiac therapy, the patient's condition initially stabilized. Nevertheless, over the next few months, the patient's general condition steadily deteriorated, and the patient decompensated, especially respiratory.
The patient was switched from Myozyme to ATB200/AT2221 after eight months of insufficient Myozyme therapy response. The patient was […] at the time of the therapy switch. The new therapy (via EAP) was initiated with the oral administration of 30 mg premedication AT2221 (Miglustat) one hour prior to enzyme administration. ATB200 was administered at a bi-weekly interval at a dosage of 20 mg/kg. In the further course of treatment, the dosage of premedication and ERT was repeatedly adjusted and optimized (see Table 22). Some actual dosages in Table 22 (e.g., 37 mg/kg and 34.5 mg/kg at 32 and 38 months, respectively) varied from the target dose (e.g., 30 mg/kg) to avoid waste of extra material left in vials.
The Gross Motor Function Measure 66 (GMFM 66) is used to quantify a patients' motor skills. The GMFM 66 is a worldwide standardized test developed and validated for children with cerebral palsy to measure the development of gross motor function over time. During testing 66 items are examined and a score from 0 to 100 points is possible.

Chain of CIMPR (P11717 41-2491, species assumed): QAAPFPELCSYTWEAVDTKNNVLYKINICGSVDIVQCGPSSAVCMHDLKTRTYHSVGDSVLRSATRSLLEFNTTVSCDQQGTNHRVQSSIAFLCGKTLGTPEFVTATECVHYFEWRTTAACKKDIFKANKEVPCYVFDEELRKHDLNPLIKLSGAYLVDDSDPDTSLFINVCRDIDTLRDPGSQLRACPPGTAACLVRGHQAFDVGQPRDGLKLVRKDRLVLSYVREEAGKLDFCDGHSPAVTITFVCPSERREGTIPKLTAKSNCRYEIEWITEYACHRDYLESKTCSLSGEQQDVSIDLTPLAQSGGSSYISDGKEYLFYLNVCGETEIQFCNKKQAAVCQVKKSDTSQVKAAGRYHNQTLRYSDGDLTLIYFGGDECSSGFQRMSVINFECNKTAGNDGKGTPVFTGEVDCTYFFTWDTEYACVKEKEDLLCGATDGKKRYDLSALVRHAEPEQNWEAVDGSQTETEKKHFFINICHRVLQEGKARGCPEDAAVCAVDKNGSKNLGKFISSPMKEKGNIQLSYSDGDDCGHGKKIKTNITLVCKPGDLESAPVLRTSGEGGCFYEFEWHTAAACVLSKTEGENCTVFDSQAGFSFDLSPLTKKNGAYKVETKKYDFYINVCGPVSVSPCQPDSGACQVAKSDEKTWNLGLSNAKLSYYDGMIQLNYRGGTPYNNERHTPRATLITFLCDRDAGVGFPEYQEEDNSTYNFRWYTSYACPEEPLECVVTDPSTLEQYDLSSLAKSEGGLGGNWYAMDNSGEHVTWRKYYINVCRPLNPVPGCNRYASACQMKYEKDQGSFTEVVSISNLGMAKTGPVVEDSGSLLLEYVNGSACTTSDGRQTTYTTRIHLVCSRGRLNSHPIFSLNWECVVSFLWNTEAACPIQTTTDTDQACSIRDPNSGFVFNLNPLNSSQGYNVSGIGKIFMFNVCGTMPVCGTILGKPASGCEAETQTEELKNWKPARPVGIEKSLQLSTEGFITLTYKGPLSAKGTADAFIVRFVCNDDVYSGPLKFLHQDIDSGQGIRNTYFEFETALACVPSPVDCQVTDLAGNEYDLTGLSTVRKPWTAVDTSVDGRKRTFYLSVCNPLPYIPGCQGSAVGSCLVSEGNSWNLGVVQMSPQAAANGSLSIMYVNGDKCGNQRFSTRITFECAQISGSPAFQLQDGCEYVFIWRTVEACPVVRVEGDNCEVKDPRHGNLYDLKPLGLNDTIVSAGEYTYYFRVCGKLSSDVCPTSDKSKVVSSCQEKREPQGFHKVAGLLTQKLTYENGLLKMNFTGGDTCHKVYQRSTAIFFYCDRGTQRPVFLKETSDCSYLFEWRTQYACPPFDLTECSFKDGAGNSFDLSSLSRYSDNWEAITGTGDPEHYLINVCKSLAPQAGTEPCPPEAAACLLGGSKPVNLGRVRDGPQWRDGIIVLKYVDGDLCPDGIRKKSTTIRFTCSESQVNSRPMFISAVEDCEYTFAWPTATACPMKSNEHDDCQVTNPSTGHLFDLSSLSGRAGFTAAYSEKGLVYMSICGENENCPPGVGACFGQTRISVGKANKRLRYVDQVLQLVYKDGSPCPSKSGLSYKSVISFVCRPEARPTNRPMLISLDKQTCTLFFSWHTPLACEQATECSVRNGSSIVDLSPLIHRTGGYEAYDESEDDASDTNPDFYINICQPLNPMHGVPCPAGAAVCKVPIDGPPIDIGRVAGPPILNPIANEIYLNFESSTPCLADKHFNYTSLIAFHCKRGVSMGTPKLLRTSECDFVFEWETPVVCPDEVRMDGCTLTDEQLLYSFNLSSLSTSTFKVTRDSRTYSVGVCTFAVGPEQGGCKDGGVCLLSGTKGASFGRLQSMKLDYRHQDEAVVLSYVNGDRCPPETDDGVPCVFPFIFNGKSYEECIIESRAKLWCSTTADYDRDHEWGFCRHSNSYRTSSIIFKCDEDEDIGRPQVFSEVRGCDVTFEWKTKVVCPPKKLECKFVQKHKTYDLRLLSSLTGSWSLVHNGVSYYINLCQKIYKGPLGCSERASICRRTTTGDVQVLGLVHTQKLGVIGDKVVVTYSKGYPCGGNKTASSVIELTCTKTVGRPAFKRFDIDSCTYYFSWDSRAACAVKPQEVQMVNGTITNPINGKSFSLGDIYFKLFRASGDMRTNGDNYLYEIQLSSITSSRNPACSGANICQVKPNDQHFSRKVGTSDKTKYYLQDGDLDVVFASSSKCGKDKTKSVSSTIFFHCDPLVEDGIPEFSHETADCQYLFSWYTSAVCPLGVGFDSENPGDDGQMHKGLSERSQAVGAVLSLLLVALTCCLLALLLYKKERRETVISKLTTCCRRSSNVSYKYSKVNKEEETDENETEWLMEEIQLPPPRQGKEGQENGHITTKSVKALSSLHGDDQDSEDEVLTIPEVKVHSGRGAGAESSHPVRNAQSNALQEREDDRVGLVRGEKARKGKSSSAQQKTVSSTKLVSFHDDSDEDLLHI

Substance: ATB200: recombinant human acid α-glucosidase with a high content of N-glycans bearing mono-M6P and bis-M6P, produced from a GA-ATB200 cell line
- rhGAA that binds to the CIMPR (contains M6P) (CIMPR; fraction of total enzyme by GAA activity): more than 70%
- CIMPR receptor binding (CIMPR; purified ATB200 rhGAA from different production batches (FIG. 5)): ≥ 70%
- GMFM 66 score ([1]; 16.5 months of ATB200 therapy): 17.0 points
- GMFM 66 score ([1]; 24 months of ATB200 therapy): 24.0 points
- GMFM 66 score ([1]; 28 months of ATB200 therapy): 29.3 points
- urinary Glc4 levels ([1]; biweekly 20 mg/kg): remained relatively constant
- urinary Glc4 levels ([1]; dose increase to 25 mg/kg/bi-weekly and switch to weekly 30 mg/kg at 19 months of age): increase
- urinary Glc4 levels ([1]; since 32 months of age (FIG. 71)): decrease of the values to the initial level
